Values joined by “and” are separate entries in the source; they are usually repeats but may differ in a detail not shown here. Equal entries are not always repeated. Where two headings read alike, the source gives them in different places.
What was measured:
[1] = tested on: AMO-1 cells; assay: In vitro cell viability assay (CellTiter-Glo); format: cell-based, human
Procedure: (§1) All cell lines were grown and treated in RPMI 1640 or Dulbecco’s modified Eagle medium (Sigma, St. Louis, MO) supplemented with 10% fetal bovine serum (Gibco) or 10% human serum (Sigma) and maintained in a humidified incubator at 5% CO2 and 37 °C. DLD-1, MV4-11, NCI-H929 (all ATCC, Manassas, VA, USA) and AMO-1 (DSMZ, Braunschweig, Germany) cells were plated 4000 cells per well in 384-well tissue culture plates and treated with compounds of interest for 24 h at 37 °C, 5% CO2 humidified incubator. Each concentration was tested in duplicate at least 3 separate times. Adherent cells were allowed to adhere overnight prior to treatment. Alternatively, AMO-1 or NCI-H929 cells were treated with ABBV-467 for the indicated contact times (1–24 h) at 37 °C in a 5% CO2 humidified incubator and washed 3 times with compound-free media prior to incubation for the remainder of a 24-h treatment period. Cell viability was subsequently determined using CellTiter-Glo (Promega, Madison, WI, USA) according to the manufacturer’s instructions.
(§2) For in vitro viability assays, mean EC50 and EC90 values were determined from the resulting dose-response curves from at least 3 independent experiments, and depict the mean ± standard error of the mean.
(§3) Fig. 2 Apoptosis induced by ABBV-467 is mechanism based and induces cell death in MCL-1-dependent cell lines after short target engagement periods. H929 cells were treated with ABBV-467 in the presence or absence of the pan-caspase inhibitor z-VAD-fmk (50 µM) and the impact on caspase-3/7 activation (a), mitochondrial membrane potential (ΔΨm; b), and apoptosis (c) determined. Alternatively, BAK-deficient SKBR3 cells were treated with ABBV-467 for 24 h and the impact on cell viability compared with the parental cell line, determined by CellTiter-Glo. Inset depicts a western blot of BAK and BAX expression in SKBR3 cell variants using GAPDH as a loading control. Each of the 3 proteins were probed on separate blots (d). Data in (a–d) are presented as the mean ± standard error of the mean. H929 and AMO-1 cells were treated with ABBV-467 at the indicated concentrations and the impact on caspase-3/7 activation and viability (DRAQ7-positive) cells determined over time by Incucyte®. Data are presented as the mean ± standard deviation (e). H929 or AMO-1 cells were cultured in media containing 10% human serum and treated with ABBV-467 for the indicated contact times. Cells were subsequently washed 3 times with drug-free media and incubated in drug-free media for the remainder of the 24-h treatment period at 37 °C before cell viability was determined by CellTiter-Glo. Mean EC50 and EC90 values were determined from the resulting dose-response curves from at least 3 independent experiments, each assessed in quadruplicate, and depict the mean ± standard error of the mean. Presented ABBV-467 dose-response curves in H929 and AMO-1 cells were compiled from at least 3 independent experiments (f).

[2] = tested on: MV4-11 cells; assay: In vitro cell viability assay (CellTiter-Glo); format: cell-based, human
Procedure: as §1, §2

[3] = tested on: DLD-1 cells; assay: In vitro cell viability assay (CellTiter-Glo); format: cell-based, human; conditions: Homo sapiens
Procedure: as §1, §2

[4] = tested on: H929 cells; assay: In vitro cell viability assay (CellTiter-Glo); format: cell-based, human
Procedure: as §1, §2, §3

[5] = tested on: SKBR3 cells; assay: Cell viability of parental and BAK-, BAX-, BCL2L11-, PMAIP1-deficient SKBR3 cells (CellTiter-Glo); format: cell-based; set-up: SKBR3 BAK Fig 2D: unit not given here
Procedure: as §3
Supplementary Fig. S5: SKBR3 cells deficient in BAX, BAK , PM AIP 1 (gene encoding the protein NOXA),
BCL 2L 11 (gene encoding the protein BIM) were treated with ABBV-467 for 24 hours and the impact on
cell death compared to the parental cell line determined by CellTiter- Glo™.

[6] = Homo sapiens, AMO1, 24 h, read-out: AMO-1 EC50 (nM, 10% FBS), 10% FBS, 24 h continuous treatment
[7] = Homo sapiens, MV4-11, 24 h, read-out: MV4-11 EC50 (nM, 10% FBS), 10% FBS, 24 h continuous treatment
[8] = DLD-1, read-out: DLD-1 EC50 (nM), 10% FBS, 24 h continuous treatment
[9] = Homo sapiens, NCI-H929, 24 h, read-out: H929 EC50 (nM, 10% FBS), 10% FBS, 24 h continuous treatment
[10] = AMO-1, individual determinations, read-out: Individual EC50
[11] = Homo sapiens, AMO1, AMO-1, arithmetic mean, read-out: Arithmetic Mean EC50 nM
[12] = Homo sapiens, AMO1, AMO-1, arithmetic mean, read-out: Arithmetic Mean EC50 µM
[13] = Homo sapiens, AMO1, AMO-1, individual determinations, read-out: Individual EC50
[14] = Homo sapiens, MV4-11, MV4-11, arithmetic mean, read-out: Arithmetic Mean EC50 nM
[15] = Homo sapiens, MV4-11, MV4-11, arithmetic mean, read-out: Arithmetic Mean EC50 µM
[16] = Homo sapiens, MV4-11, MV4-11, individual determinations, read-out: Individual EC50
[17] = MV4-11, individual determinations, read-out: Individual EC50
[18] = DLD-1, arithmetic mean, read-out: Arithmetic Mean EC50
[19] = DLD-1, individual determinations, read-out: Individual EC50
[20] = Homo sapiens, NCI-H929, NCI-H929, arithmetic mean, read-out: Arithmetic Mean EC50 nM
[21] = Homo sapiens, NCI-H929, NCI-H929, arithmetic mean, read-out: Arithmetic Mean EC50 µM
[22] = NCI-H929, individual determinations, read-out: Individual EC50

| Structure (SMILES) | EC50 [2, 7] | EC50 [3, 8] | EC50 [4, 9] | EC50 [2, 14] | EC50 [2, 15] | EC50 [2, 16] | EC50 [2, 17] | EC50 [3, 18] | EC50 [3, 19] | EC50 [4, 20] | EC50 [4, 21] | EC50 [4, 22] | EC50 [1, 6] | EC50 [1, 10] | EC50 [1, 11] | EC50 [1, 12] | EC50 [1, 13] | also measured |
| --- | --- | --- | --- | --- | --- | --- | --- | --- | --- | --- | --- | --- | --- | --- | --- | --- | --- | --- |
| CO[C@H]1/C=C/C[C@H](C)[C@@H](C)S(=O)(=O)NC(=O)c2ccc3c(c2)N(C[C@@H]2CC[C@H]21)C[C@@]1(CCCc2cc(Cl)ccc21)CO3 [AMG 176, reference compound] | 106 nM | > 10000 nM | 195 nM | – | – | – | – | – | – | – | – | – | 90.6 nM | – | – | – | – | – |
| CO[C@]1(CN2CCN3CCCC[C@@H]3C2)/C=C/C[C@H](C)[C@@H](C)S(=O)(=O)NC(=O)c2ccc3c(c2)N(C[C@@H]2CC[C@H]21)C[C@@]1(CCCc2cc(Cl)ccc21)CO3 [AMG 397, reference compound] | 43.6 nM | > 10000 nM | 13 nM | 43.6 nM | 43.6 nM | 44.3 nM | 42 nM and 44.6 nM | > 10000 nM | > 10000 nM | 13 nM | 13 nM | 13.4 nM and 12.9 nM | 13.5 nM | 13.1 nM and 12.8 nM | 13.5 nM | 13.5 nM | 14.8 nM | EC50 ([4]; Homo sapiens, NCI-H929, NCI-H929, individual determinations, read-out: Individual EC50): 12.7 nM |
| CO[C@H]1/C=C/C[C@H](C)[C@@H](C)S(=O)(=O)NC(=O)c2ccc3c(c2)N(C[C@@H]2CC[C@H]21)C[C@@]1(CCCc2cc(Cl)ccc21)CO3 [AMG-176] | – | – | – | 106 nM | 106 nM | – | 85.5 nM and 203 nM | > 10000 nM | > 10000 nM | 195 nM | 195 nM | – | – | 105 nM and 130 nM and 174 nM | 90.6 nM | 90.6 nM | – | – |
| Cc1c(Cl)c2c(Cl)c(C)c1-c1c(-c3ccc(F)cc3)sc3ncnc(c13)O[C@@H](C(=O)O)Cc1cc(ccc1OCc1ccnc(-c3ccc(OC[C@H]4COCCO4)cc3)n1)OC[C@@H](CN1CCN(C)CC1)O2 [Compound A-1747745.7] | – | – | – | – | – | – | – | – | – | – | – | – | – | – | – | – | – | SKBR3 BAK Fig 2D ([5]; SKBR3 BAK-/-, Log [A-1747745.7] uM 0.045757): 84.0406 and 88.7361 and 91.3691; SKBR3 BAK Fig 2D ([5]; SKBR3 BAK-/-, Log [A-1747745.7] uM 0.522879): 91.5492 and 90.6375 and 98.324; SKBR3 BAK Fig 2D ([5]; SKBR3 BAK-/-, Log [A-1747745.7] uM 1): 71.243 and 87.693 and 82.7613; SKBR3 BAK Fig 2D ([5]; SKBR3 BAK-/-, Log [A-1747745.7] uM -0.43136): 93.7393 and 91.7734 and 95.9555; SKBR3 BAK Fig 2D ([5]; SKBR3 BAK-/-, Log [A-1747745.7] uM -0.90849): 91.4405 and 96.0162 and 91.1767; SKBR3 BAK Fig 2D ([5]; SKBR3 BAK-/-, Log [A-1747745.7] uM -1.38561): 96.4117 and 96.5016 and 91.1114; SKBR3 BAK Fig 2D ([5]; SKBR3 BAK-/-, Log [A-1747745.7] uM -1.86273): 100.833 and 96.8873 and 90.9219; SKBR3 BAK Fig 2D ([5]; SKBR3 BAK-/-, Log [A-1747745.7] uM -2.33985): 101.031 and 99.3037 and 92.3815; SKBR3 BAK Fig 2D ([5]; SKBR3 BAK-/-, Log [A-1747745.7] uM -2.81697): 103.475 and 99.2425 and 96.192; SKBR3 BAK Fig 2D ([5]; SKBR3 BAK-/-, Log [A-1747745.7] uM -3.29409): 92.6268 and 101.141 and 97.8192; SKBR3 BAK Fig 2D ([5]; SKBR3 BAK-/-, Log [A-1747745.7] uM -3.79): 106.888 and 100.173 and 98.0201; SKBR3 BAK Fig 2D ([5]; SKBR3 Parent, Log [A-1747745.7] uM -1.86273): 28.8447 and 52.516 and 42.8969; SKBR3 BAK Fig 2D ([5]; SKBR3 Parent, Log [A-1747745.7] uM -2.33985): 83.0425 and 94.5116 and 88.5924; SKBR3 BAK Fig 2D ([5]; SKBR3 Parent, Log [A-1747745.7] uM -2.81697): 98.7606 and 99.166 and 97.8729; SKBR3 BAK Fig 2D ([5]; SKBR3 Parent, Log [A-1747745.7] uM -3.29409): 89.9706 and 97.7937 and 96.3217; SKBR3 BAK Fig 2D ([5]; SKBR3 Parent, Log [A-1747745.7] uM -3.79): 100.8 and 103.293 and 99.6415 |

Now from value to molecule, other results behind:

| EC50 [2, 7] | EC50 [3, 8] | EC50 [4, 9] | EC50 [2, 14] | EC50 [2, 15] | EC50 [2, 16] | EC50 [2, 17] | EC50 [3, 18] | EC50 [3, 19] | EC50 [4, 20] | EC50 [4, 21] | EC50 [4, 22] | Structure (SMILES) | EC50 [1, 6] | EC50 [1, 10] | EC50 [1, 11] | EC50 [1, 12] | EC50 [1, 13] | also measured |
| --- | --- | --- | --- | --- | --- | --- | --- | --- | --- | --- | --- | --- | --- | --- | --- | --- | --- | --- |
| 34.9 nM | > 10000 nM | 31.7 nM | – | – | – | – | – | – | – | – | – | Cc1c2c(nn1C)CSCc1cc(n(C)n1)CSc1cc(c3ccccc3c1)OCCCc1c(C(=O)O)n(C)c3c-2c(Cl)ccc13 [AZD5991, reference compound] | 22.9 nM | – | – | – | – | – |
| – | – | – | 34.9 nM | 34.9 nM | 36.3 nM | 35 nM and 33.3 nM | > 10000 nM | > 10000 nM | 31.6 nM | 31.6 nM | 22 nM and 20.4 nM and 19.8 nM and 64.4 nM | Cc1c2c(nn1C)CSCc1cc(n(C)n1)CSc1cc(c3ccccc3c1)OCCCc1c(C(=O)O)n(C)c3c-2c(Cl)ccc13 [AZD-5991] | – | 18.6 nM and 18.3 nM and 31.9 nM | 22.9 nM | 22.9 nM | 22.8 nM | – |

— publication PMC10600239, “Selective MCL-1 inhibitor ABBV-467 is efficacious in tumor models but is associated with cardiac troponin increases in patients” (Communications Medicine, 2023)
